The source of these data is patent US8377905B2, “Stable crystal of 1-(2′-cyano-2′-deoxy-β-D-arabinofuranosyl)cytosine monohydrochloride” (Delta-Fly Pharma, Inc., priority 2009, dated 2013).

The nature of data set [1]: Heating of the crystal at 80° C. for 2 hours, crystal form by melting point and powder X-ray diffraction. The data set is classed as physicochemical. Conditions: heated at 80° C. for 2 hours.
A short description of data set [2]: Stability test: change of crystal form by powder X-ray diffraction after storage. Conditions: 30 days. The data set is classed as physicochemical. From the text:
(§1) The powder X-ray diffraction data were obtained by irradiating the crystal with CuKα ray (1.541 Å) using an X-ray diffraction apparatus (trade name: PW3050, manufactured by Koninklijke Philips Electronics N.V.), and detecting the angles using a vertical goniometer. The type I and type II crystal powders were respectively spread uniformly on a glass petri dish, and an aluminum foil (or a transparent resin film, for the purpose of storage under light exposure conditions) which was appropriately perforated as vent holes therein was used as a lid, to prepare test samples. These samples were respectively stored for 30 days under four kinds of conditions such as [60° C.], [40° C./relative humidity (RH) 75%], [25° C./relative humidity (RH) 60%, light exposure 2000 lx·hr], and [25° C./relative humidity (RH) 60%, light shading], and then the samples were tested using high performance liquid chromatography (HPLC) and powder X-ray diffraction (XRD). For powder X-ray diffraction (XRD), the analysis was carried out as described above.

A short description of data set [3]: Stability test: content of total analogues by HPLC after storage. Conditions: for Total analogues (%), amount of increase from the initial value: 30 days vs initial; for Total analogues (%), 10 days: storage 10 days; for Total analogues (%), 18 days: storage 18 days; for Total analogues (%), 30 days: storage 30 days; for Increase in the total analogues: stability test under various conditions (humidification and exposure), 30 days. The data set is classed as physicochemical. As for the experimental part:
as §1, with “The” for “The powder X-ray diffraction data were obtained by irradiating the crystal with CuKα ray (1.541 Å) using an X-ray diffraction apparatus (trade name: PW3050, manufactured by Koninklijke Philips Electronics N.V.), and detecting the angles using a vertical goniometer. The”, “(XRD).” for “(XRD). For powder X-ray diffraction (XRD), the analysis was carried out as described above.”
For the HPLC analysis, 22.9 mg of the sample was dissolved in 10 mL of 0.01 mol/L hydrochloric acid, and then the content of analogues in the crystal was measured under the following conditions.
Column: Synergi Hydro-RP 80A Phenomenex (φ4.6 mm×25 cm, 4 μm); temperature 25° C.
Mobile phase: 2.05 g of potassium dihydrogen phosphate is dissolved in 3000 mL of water, and phosphoric acid is added to the solution to adjust the pH to 3.0. The mobile phase is prepared by adding 60 mL of methanol to 2940 mL of the solution liquid.
Flow rate: Approximately 1.0 mL/min
Detector: Ultraviolet absorptiometer (measurement wavelength 254 nm)
Standard Sample: • 1-(2′-cyano-2′-deoxy-β-D-arabinofuranosyl)cytosine monohydrochloride
The term “total analogues” refers to the substances detected other than 1-(2′-cyano-2′-deoxy-β-D-arabinofuranosyl)cytosine monohydrochloride), and the term “total analogues (%)” refers to the content ratio of total analogues with respect to the standard sample.

The conditions of data set [4]: Patent Document 1, Non-Patent Documents 1 and 2; cited from earlier work.
Data set [5] concerns human or mouse tumor cells. Conditions: Patent Document 1, Non-Patent Documents 1 and 2; cited from earlier work.
The mark [6] stands for this setting: 40° C./75% RH, listed as I, monohydrochloride.
[7] abbreviates: 25° C./60% RH/2000 lx, listed as I, monohydrochloride.
The mark [8] stands for this setting: 25° C./60% RH/Light shading, listed as I, monohydrochloride.
Where [9] appears, read: 60° C., listed as I, monohydrochloride.
Where [10] appears, read: 40° C./75% RH, listed as II, monohydrochloride.
The mark [11] stands for this setting: 25° C./60% RH/2000 lx, listed as II, monohydrochloride.
[12] abbreviates: 25° C./60% RH/Light shading, listed as II, monohydrochloride.
Where [13] appears, read: 60° C., listed as II, monohydrochloride.

On to `Cl.N#CC1C(O)[C@@H](CO)O[C@H]1n1ccc(N)nc1=O` (stereo partly drawn) [type III crystal, 1-(2′-cyano-2′-deoxy-β-D-arabinofuranosyl)cytosine monohydrochloride], for which the “Change of crystal form on heating” value in data set [1] is given as “converted to the type I crystal”.
Take `Cl.N#C[C@H]1[C@H](O)[C@@H](CO)O[C@H]1n1ccc(N)nc1=O` [type I crystal, 1-(2′-cyano-2′-deoxy-β-D-arabinofuranosyl)cytosine monohydrochloride]: the “Change of crystal form from the initial value” in data set [2] (25° C./60% RH/2000 lx), in data set [2] (25° C./60% RH/Light shading), in data set [2] (setting [6]) and in data set [2] (60° C.) was “No change” throughout. Besides, the “Total analogues (%), amount of increase from the initial value” is reported as 0.06% in data set [3] (setting [7]), 0.00% in data set [3] (setting [8]), −0.02% in data set [3] (setting [6]) and 0.00% in data set [3] (setting [9]). Moreover, the “Total analogues (%), initial” value in data set [3] (setting [7]), in data set [3] (setting [8]), in data set [3] (setting [6]) and in data set [3] (setting [9]) was 0.07% in each case. Moreover, the “Total analogues (%), 10 days” value in data set [3] (setting [7]) turned out to be 0.09%; in data set [3] (setting [8]), 0.07%; in data set [3] (setting [6]) it was 0.07%; in data set [3] (60° C.), 0.06%. In addition, the “Total analogues (%), 18 days” value in data set [3] (setting [7]) stood at 0.09%; in data set [3] (setting [8]), 0.06%; in data set [3] (setting [6]), 0.06%; in data set [3] (60° C.), 0.07%. Further, the “Total analogues (%), 30 days” value in data set [3] (setting [7]) was determined as 0.13%; in data set [3] (setting [8]), 0.07%; in data set [3] (setting [6]), 0.05%; in data set [3] (60° C.), 0.07%. For the same compound, in data set [3] (conclusion from the stability test and crystal form conversions), the “Stability of the crystal form (overall conclusion)” value is reported as “superior stability as compared with the type II crystal or the type III crystal”. Further, in data set [3], the “Increase in the total analogues” value is reported as “not recognized”.
Take `Cl.N#CC1C(O)[C@@H](CO)O[C@H]1n1ccc(N)nc1=O` (stereo partly drawn) [compound (1), 1-(2′-cyano-2′-deoxy-β-D-arabinofuranosyl)cytosine monohydrochloride]: the “Anti-tumor activity in vivo” value in data set [4] is “excellent anti-tumor activity”. Besides, the “In vitro suppressive effect for proliferation of tumor cells” value in data set [5] is listed as “suppressive effect for proliferation”.
For `Cl.N#CC1C(O)[C@@H](CO)O[C@H]1n1ccc(N)nc1=O` (stereo partly drawn) [type II crystal, 1-(2′-cyano-2′-deoxy-β-D-arabinofuranosyl)cytosine monohydrochloride], the “Change of crystal form from the initial value” was “No change” in data set [2] (25° C./60% RH/2000 lx); “Changed (II → I)” in data set [2] (setting [10]); “converted to the type I crystal” in data set [2] (40° C./75% RH, monohydrochloride). The “Total analogues (%), amount of increase from the initial value” is listed as 0.32% in data set [3] (setting [11]), 0.03% in data set [3] (setting [12]), 0.10% in data set [3] (setting [10]) and 0.01% in data set [3] (setting [13]). In addition, the “Total analogues (%), initial” value in data set [3] (setting [11]), in data set [3] (setting [12]), in data set [3] (setting [10]) and in data set [3] (setting [13]) was 0.06% in each case. Further, the “Total analogues (%), 10 days” value is recorded as 0.15% in data set [3] (setting [11]), 0.06% in data set [3] (setting [12]) and 0.06% in data set [3] (setting [10]). Besides, the “Total analogues (%), 18 days” value in data set [3] (setting [11]) was determined as 0.23%; in data set [3] (setting [12]) it was 0.07%; in data set [3] (setting [10]), 0.08%. Moreover, the “Total analogues (%), 30 days” value in data set [3] (setting [11]) was 0.38%; in data set [3] (setting [12]), 0.09%; in data set [3] (setting [10]), 0.16%; in data set [3] (60° C.), 0.07%. Also, in data set [3], the “Increase in the total analogues” value was “not recognized”.
